# Assays:
# [1] = Compound was evaluated for oral bioavailability in dogs; 37-38 %; type: ADME, organism-based, Canis lupus familiaris; conditions: dog, in vivo
# [2] = Solubility in water.; type: physicochemical; conditions: read-out: S
structure (smiles),measurement,setting,value
O=C1N(Cc2ccc(CO)cc2)[C@H](Cc2ccccc2)[C@H](O)[C@@H](O)[C@@H](Cc2ccccc2)N1Cc1ccc(CO)cc1 [DMP-323],bioavailability,[1],38%
same,solubility,[2],10 µg/mL

# Source: ChEMBL document CHEMBL1129172, “Synthesis of water soluble prodrug of DMP323” (Bioorg Med Chem Lett, 1996)
